Blank lines part the entries; values can stand above or below the molecule they belong to.
Tests used:
RlmR (TTC1712) [1] = molecular target: T1, RlmR (TTC1712) (Thermus thermophilus, UniProt Q72GY4); experiment: X-ray crystal structure, […] Å; type: binding; conditions: ternary complex with U2552 59-mer A-loop RNA; SAH in bent conformation; SAM site at the trefoil knot; pH 4.5
T1 construct: gene TT_C1712; full-length ORF (about 260 residues), N-terminal His-tag, pET28, codon-optimised gene, expressed in E. coli Rosetta; homodimer; HB8 orthologue TTHA0275 differs by three residues
T1 sequence (Q72GY4 1-260): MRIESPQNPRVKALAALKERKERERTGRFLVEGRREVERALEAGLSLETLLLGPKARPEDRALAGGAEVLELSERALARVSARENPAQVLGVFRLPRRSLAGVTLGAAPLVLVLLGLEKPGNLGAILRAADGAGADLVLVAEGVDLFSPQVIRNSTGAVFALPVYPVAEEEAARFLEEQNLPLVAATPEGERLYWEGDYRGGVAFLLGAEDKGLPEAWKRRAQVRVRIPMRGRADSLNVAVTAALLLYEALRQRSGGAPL

RlmR (TTC1712) [2] = molecular target: T1, RlmR (TTC1712); experiment: X-ray crystal structure (co-crystal with RNA and SAM); also radiolabelled methyl transfer assay; type: binding; conditions: co-substrate U2552 59-mer RNA; SAM kept in the dimer site without RNA, turned over to SAH in the RNA-bound site; assay pH 8.0, 5 mM MgCl2, 50 °C, labelled compound
[3] = molecular target: RlmR (TTC1712), 23S rRNA Um2552 SPOUT methyltransferase of Thermus thermophilus HB27 (Thermus thermophilus HB27); experiment: crystal structure; RlmR apoenzyme crystallised under oil at 20°C (100 mM Na citrate pH 4, 20% PEG6000, 1 M LiCl); asymmetric unit of two dimers; the same dimer holds the 59-mer RNA in the complexes with SAH or SAM
[4] = molecular target: RlmR (TTC1712), 23S rRNA Um2552 SPOUT methyltransferase of Thermus thermophilus HB27 (Thermus thermophilus HB27); experiment: SEC; gel filtration chromatography of purified RlmR (Supplementary Fig. S4)

Molecule: Nc1ncnc2c1ncn2[C@@H]1O[C@H](CSCC[C@H](N)C(=O)O)[C@@H](O)[C@H]1O [SAH, S-adenosyl-homocysteine]
X-ray crystal structure, 1.9 Å (RlmR (TTC1712) [1]): crystal structure of RlmR in complex with the 59-mer RNA and SAH to a resolution

Molecule: C[S+](CC[C@H](N)C(=O)O)C[C@H]1O[C@@H](n2cnc3c(N)ncnc32)[C@H](O)[C@@H]1O (stereo partly shown) [SAM, S-adenosylmethionine]
X-ray crystal structure (co-crystal with RNA and SAM); also radiolabelled methyl (RlmR (TTC1712) [2]): in the other catalytic site of the dimer, not hosting the substrate, the co-substrate remains present as SAM

stoichiometry N [3]: 2
stoichiometry N [4]: 2
Molecule: RlmR (TTC1712), 23S rRNA Um2552 SPOUT methyltransferase of Thermus thermophilus HB27 (enzyme)

Source: paper PMC12123411, “Structural insight into the novel Thermus thermophilus SPOUT methyltransferase RlmR catalysing Um2552 formation in the 23S rRNA A-loop: a case of convergent evolution” (Nucleic Acids Research, 2025)
